The results in this text go back to ChEMBL document CHEMBL1743341, “Cytochrome p450 enzymes mechanism based inhibitors: common sub-structures and reactivity” (Curr Drug Metab, 2005).

Each structure is given as a SMILES string.

Holding throughout (format): ADME
One data set concerns the target T1, CYP2B6 (Homo sapiens, UniProt P20813).
T1 sequence (P20813 whole entry): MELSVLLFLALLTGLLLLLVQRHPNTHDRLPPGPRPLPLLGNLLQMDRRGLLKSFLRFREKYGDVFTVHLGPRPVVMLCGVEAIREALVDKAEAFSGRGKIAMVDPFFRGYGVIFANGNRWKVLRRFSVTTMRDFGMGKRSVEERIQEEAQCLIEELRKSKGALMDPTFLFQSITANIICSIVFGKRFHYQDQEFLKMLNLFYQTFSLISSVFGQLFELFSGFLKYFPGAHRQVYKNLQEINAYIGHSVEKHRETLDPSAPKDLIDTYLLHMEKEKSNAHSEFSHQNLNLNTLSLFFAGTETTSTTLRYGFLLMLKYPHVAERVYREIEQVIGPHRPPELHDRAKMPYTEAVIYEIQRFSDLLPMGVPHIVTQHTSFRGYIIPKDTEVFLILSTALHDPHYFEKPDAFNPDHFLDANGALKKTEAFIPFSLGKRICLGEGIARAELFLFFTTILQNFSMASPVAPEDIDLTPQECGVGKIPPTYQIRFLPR
The experiment in a line: Mechanism based inhibition of human cytochrome P450 CYP2B6 measured by 7-EFC O-deethylation activity. To be noted: probe 7-EFC (O-deethylation).

The next data set addresses CYP3A4 (Homo sapiens, UniProt P08684). The experiment in a line: (§1) Mechanism based inhibition of human cytochrome P450 CYP3A4 measured by 7BFC O-debenzylation. Conditions: human, probe 7BFC (O-debenzylation).
In the next data set the target is Cytochrome P450 3A4 (Homo sapiens, UniProt P08684). The data set is described as §1.
Sequence of Cytochrome P450 3A4 (P08684 whole entry): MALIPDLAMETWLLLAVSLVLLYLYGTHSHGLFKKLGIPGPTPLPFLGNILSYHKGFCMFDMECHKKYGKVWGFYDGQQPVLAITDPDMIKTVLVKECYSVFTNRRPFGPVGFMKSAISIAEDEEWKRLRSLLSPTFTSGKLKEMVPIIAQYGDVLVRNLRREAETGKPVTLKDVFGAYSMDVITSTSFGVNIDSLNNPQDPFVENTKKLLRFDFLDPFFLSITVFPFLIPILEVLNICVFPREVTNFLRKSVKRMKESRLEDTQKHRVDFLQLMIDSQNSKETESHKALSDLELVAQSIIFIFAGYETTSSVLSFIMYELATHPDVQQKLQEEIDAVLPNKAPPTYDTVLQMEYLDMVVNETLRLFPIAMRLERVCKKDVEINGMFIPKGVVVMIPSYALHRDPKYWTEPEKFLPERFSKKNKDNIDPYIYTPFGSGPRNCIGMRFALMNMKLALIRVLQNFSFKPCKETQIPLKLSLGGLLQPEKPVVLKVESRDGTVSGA
The next data set addresses Cytochrome P450 3A2 (Rattus norvegicus, UniProt P05183). Briefly: Mechanism based inhibition of rat cytochrome P450 CYP3A2 measured by testosterone hydroxylation at positions 2-beta and 6-beta.
The next data set addresses T2, Cytochrome P450 2C11 (Rattus norvegicus, UniProt P08683).
T2 sequence (P08683 whole entry): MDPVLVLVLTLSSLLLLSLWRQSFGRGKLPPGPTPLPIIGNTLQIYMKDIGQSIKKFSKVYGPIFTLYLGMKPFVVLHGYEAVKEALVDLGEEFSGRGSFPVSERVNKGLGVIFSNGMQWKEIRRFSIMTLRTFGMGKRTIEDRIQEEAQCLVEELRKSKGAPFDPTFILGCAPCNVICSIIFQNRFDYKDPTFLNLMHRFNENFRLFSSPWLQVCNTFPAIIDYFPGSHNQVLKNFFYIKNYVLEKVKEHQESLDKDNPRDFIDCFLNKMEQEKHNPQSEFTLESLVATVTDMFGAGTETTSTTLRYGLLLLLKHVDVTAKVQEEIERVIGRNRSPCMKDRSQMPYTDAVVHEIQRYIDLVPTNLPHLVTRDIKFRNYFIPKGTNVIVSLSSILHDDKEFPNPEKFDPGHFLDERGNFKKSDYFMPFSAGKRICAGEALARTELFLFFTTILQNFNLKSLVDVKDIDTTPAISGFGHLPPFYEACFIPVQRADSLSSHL
Briefly: Mechanism based inhibition of rat cytochrome P450 CYP2C11 measured by testosterone hydroxylation at positions 2-alpha and 16-alpha.

Sequence of CYP3A4 (P08684 whole entry): as the sequence (P08684 whole entry) above
Sequence of Cytochrome P450 3A2 (P05183 whole entry): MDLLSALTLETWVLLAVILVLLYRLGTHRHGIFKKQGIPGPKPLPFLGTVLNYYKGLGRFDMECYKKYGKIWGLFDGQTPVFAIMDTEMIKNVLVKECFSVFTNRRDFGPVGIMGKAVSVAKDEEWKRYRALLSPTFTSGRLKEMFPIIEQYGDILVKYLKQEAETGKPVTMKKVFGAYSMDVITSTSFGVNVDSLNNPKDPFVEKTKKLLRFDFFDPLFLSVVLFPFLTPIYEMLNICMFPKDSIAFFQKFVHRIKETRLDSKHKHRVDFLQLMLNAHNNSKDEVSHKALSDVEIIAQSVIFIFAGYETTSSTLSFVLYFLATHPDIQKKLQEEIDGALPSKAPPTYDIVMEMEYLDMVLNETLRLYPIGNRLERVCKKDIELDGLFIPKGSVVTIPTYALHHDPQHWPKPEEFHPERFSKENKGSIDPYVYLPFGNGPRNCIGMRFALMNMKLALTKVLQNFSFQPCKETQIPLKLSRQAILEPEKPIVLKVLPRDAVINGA

What is called kinact is the maximal first-order rate at which the target is inactivated. For the compound `CC1(C)C=Cc2c(ccc3c2OC[C@@H](c2ccc(O)cc2O)C3)O1` [GLABRIDIN], the values for the kinact at CYP2B6 and on CYP3A4 were 0.00133 s⁻¹ and 0.00233 s⁻¹, respectively. The Ki at Cytochrome P450 3A4 amounted to 7 µM.

For `[N]=O` [NITRIC OXIDE], the mechanism based inhibition entry at Cytochrome P450 3A2 and on Cytochrome P450 2C11 was “Cytochrome P450 mechanistic inhibitor: PMID 9400024” throughout.
